Among the test systems are HCC 2998; K562; SF-295; OVCAR-8; OVCAR-4; UACC-257; RPMI-8226; T47D; RXF 393; NCI-H460; CCRF-CEM; Malme-3M; HOP-62; NCI-H522; MOLT-4; KM12; SNB-75; MDA-MB-435; NCI-H226; NCI/ADR-RES.
What all share (assay): growth of human tumour cells (NCI), 48 h

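Exposure lasted 48 hours, with cells grown in 96-well plates and compounds tested at five concentrations. GI50 marks 50% less growth.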 Calls of active or inactive are those of the source. No stated cut-off is given here; in the data, active = GI50 up to about 1.1 µM and inactive = higher.

Turning to `O=[N+]([O-])c1cccc2nccc(NCCCO)c12`, the GI50 was 13.2 µM (inactive) in the assay with HCC 2998; 13.2 µM (inactive) in the assay with K562; 15.5 µM (inactive) with SF-295; 14.5 µM (inactive) in the assay with OVCAR-8; 11 µM (inactive) with OVCAR-4; 11.4 µM (inactive) in the assay with UACC-257. Also, the GI50 with RPMI-8226 is 13.6 µM (inactive); with T47D it was 26.4 µM (inactive); in the assay on RXF 393, 6.17 µM (inactive); in the assay on NCI-H460, 11 µM (inactive); with CCRF-CEM, 14.7 µM (inactive); in the assay on Malme-3M, 10.2 µM (inactive). Further, the GI50 in the assay on HOP-62 was 17.5 µM (inactive); with NCI-H522, 6 µM (inactive); in the assay on MOLT-4, 13.9 µM (inactive); in the assay with KM12 it was 10.8 µM (inactive); with SNB-75, 24.3 µM (inactive); in the assay on MDA-MB-435 it was 11.7 µM (inactive). The GI50 in the assay on NCI-H226 was 23 µM (inactive).

On to `CO[C@H]1O[C@@H]2CO[C@@H](c3ccccc3)O[C@H]2[C@@H]2C/C=C\CCC[C@@]12O`, for which the GI50 in the assay on HCC 2998 was 12.7 µM (inactive); in the assay on K562 it was 20 µM (inactive); in the assay on NCI/ADR-RES, 26.9 µM (inactive); in the assay on SF-295, 19.7 µM (inactive); with OVCAR-8, 34.1 µM (inactive); in the assay with OVCAR-4, 32.8 µM (inactive). Further, the GI50 in the assay with UACC-257 is 18.5 µM (inactive); with RPMI-8226 it was 17.2 µM (inactive); with T47D it was 33.2 µM (inactive); with RXF 393 it was 17.2 µM (inactive); in the assay on NCI-H460, 16.8 µM (inactive); in the assay on CCRF-CEM, 31 µM (inactive). Also, the GI50 is 18 µM (inactive) in the assay with HOP-62; 20.1 µM (inactive) in the assay on NCI-H522; 17 µM (inactive) in the assay with MOLT-4; 22.5 µM (inactive) with KM12; 59.6 µM (inactive) in the assay on SNB-75; 24 µM (inactive) in the assay on MDA-MB-435. Also, the GI50 with NCI-H226 is 20.7 µM (inactive).

For the molecule `N#C/C(C(=O)Nc1ccc(Cl)cc1)=C(/N)N1CCOCC1`, the GI50 in the assay with HCC 2998 is > 100 µM (inactive); in the assay with K562 it was 61.2 µM (inactive); in the assay with NCI/ADR-RES, > 100 µM (inactive); with SF-295 it was > 100 µM (inactive); with OVCAR-8 it was > 100 µM (inactive); in the assay on UACC-257, 47.4 µM (inactive). For the same molecule, the GI50 in the assay with RPMI-8226 is > 100 µM (inactive); in the assay on T47D, > 100 µM (inactive); in the assay with NCI-H460, > 100 µM (inactive); in the assay with CCRF-CEM, > 100 µM (inactive); in the assay on HOP-62, 73.3 µM (inactive); in the assay with MOLT-4, 64 µM (inactive). Also, the GI50 with KM12 was > 100 µM (inactive); in the assay on SNB-75, 65.5 µM (inactive); in the assay with MDA-MB-435 it was 56.9 µM (inactive); with NCI-H226 it was > 100 µM (inactive).

On to `COc1ccc(-c2nc3ccccc3c(=S)n2OC(C)=O)cc1`, for which the GI50 was > 25 µM (inactive) in the assay on HCC 2998; 0.836 µM (active) in the assay on K562; 2.54 µM (inactive) with NCI/ADR-RES; 2.25 µM (inactive) in the assay with SF-295; 3.1 µM (inactive) with OVCAR-8; 8.32 µM (inactive) in the assay with OVCAR-4. Moreover, the GI50 in the assay on UACC-257 is 13.1 µM (inactive); in the assay with RPMI-8226, 3.27 µM (inactive); in the assay with T47D it was 3.5 µM (inactive); in the assay with RXF 393 it was 8.75 µM (inactive); in the assay on NCI-H460 it was 1.05 µM (active); with CCRF-CEM it was 1.5 µM (inactive). The GI50 is 4.76 µM (inactive) in the assay with Malme-3M; 4.76 µM (inactive) with HOP-62; 1.15 µM (inactive) in the assay on MOLT-4; 1.64 µM (inactive) with KM12; 6.84 µM (inactive) in the assay on SNB-75; 7.1 µM (inactive) with MDA-MB-435. Besides, the GI50 in the assay on NCI-H226 was 7.85 µM (inactive).

Regarding `O=C1OC(c2ccccc2)=N/C1=C\c1cn[nH]n1`, the GI50 with HCC 2998, in the assay with K562, in the assay with NCI/ADR-RES, with SF-295, with OVCAR-8 and in the assay on OVCAR-4 was > 100 µM (inactive) each time. Moreover, the GI50 was > 100 µM (inactive) with UACC-257; > 100 µM (inactive) in the assay on RPMI-8226; > 100 µM (inactive) in the assay with T47D; > 100 µM (inactive) in the assay with RXF 393; > 100 µM (inactive) in the assay with NCI-H460; 97.1 µM (inactive) in the assay with CCRF-CEM. For the same molecule, the GI50 was 83.4 µM (inactive) in the assay on Malme-3M; > 100 µM (inactive) with HOP-62; > 100 µM (inactive) with MOLT-4; > 100 µM (inactive) in the assay with KM12; > 100 µM (inactive) in the assay with SNB-75; > 100 µM (inactive) in the assay on MDA-MB-435. For the same molecule, the GI50 in the assay on NCI-H226 is > 100 µM (inactive).

Regarding `CSCCCCCCCCCCOc1ccc(C=C2C(=C(C#N)C#N)c3ccccc3C2=C(C#N)C#N)cc1`, the GI50 was 30.6 µM (inactive) in the assay with K562; 29 µM (inactive) in the assay with NCI/ADR-RES; 17.2 µM (inactive) with SF-295; 17.5 µM (inactive) with OVCAR-8; 18.3 µM (inactive) in the assay on OVCAR-4; 18.9 µM (inactive) with UACC-257. Moreover, the GI50 in the assay on RPMI-8226 was 28.8 µM (inactive); in the assay on T47D, 21.6 µM (inactive); with RXF 393, 17.3 µM (inactive); with NCI-H460 it was 17.7 µM (inactive); with CCRF-CEM it was 1.32 µM (inactive); in the assay with HOP-62, 17.9 µM (inactive). Besides, the GI50 in the assay on NCI-H522 was 19.5 µM (inactive); with MOLT-4 it was 19.2 µM (inactive); in the assay with KM12, 19 µM (inactive); in the assay with MDA-MB-435 it was 16.7 µM (inactive); with NCI-H226, 30.4 µM (inactive).

On to `CC(C)c1ccc2c(c1)C=C1OC(=O)[C@]3(C)CCC[C@@]2(C)C13` (stereo not given in full), for which the GI50 with HCC 2998, with K562, in the assay with NCI/ADR-RES, with SF-295, in the assay on OVCAR-8 and in the assay on OVCAR-4 was > 100 µM (inactive) throughout. Also, the GI50 in the assay on UACC-257, in the assay with RPMI-8226, with T47D, in the assay with RXF 393, with NCI-H460 and in the assay with CCRF-CEM was > 100 µM (inactive) throughout. Also, the GI50 was > 100 µM (inactive) in the assay with HOP-62; 73.5 µM (inactive) in the assay on NCI-H522; > 100 µM (inactive) with MOLT-4; > 100 µM (inactive) in the assay on KM12; > 100 µM (inactive) in the assay with SNB-75; > 100 µM (inactive) in the assay on MDA-MB-435. The GI50 with NCI-H226 was > 100 µM (inactive).

As for `COc1ccc2cc(C(C)C(=O)N3C(=O)OCC3(C)C)ccc2c1` (stereo not given), the GI50 in the assay with HCC 2998, with K562, with NCI/ADR-RES, in the assay with SF-295, with OVCAR-8 and in the assay on OVCAR-4 was > 100 µM (inactive) throughout. For the same molecule, the GI50 was > 100 µM (inactive) with UACC-257; > 100 µM (inactive) in the assay on RPMI-8226; > 100 µM (inactive) with T47D; > 100 µM (inactive) in the assay on NCI-H460; > 10 µM (inactive) in the assay on CCRF-CEM; > 100 µM (inactive) in the assay on Malme-3M. For the same molecule, the GI50 in the assay with HOP-62 was > 100 µM (inactive); in the assay with MOLT-4, > 100 µM (inactive); with SNB-75 it was 46.6 µM (inactive); in the assay with MDA-MB-435, > 100 µM (inactive); with NCI-H226, > 100 µM (inactive).

The values are drawn from ChEMBL document CHEMBL1201862, “PubChem BioAssay data set” (2004).
